Data as given in PubChem BioAssay AID509.

Target: Peroxisomal multifunctional enzyme type 2 (Homo sapiens) (UniProt P51659)
Assay: ligand-induced stabilization of human HSD17B4 – biophysical, DSF, SYPRO orange, recombinant protein (AID 509)
Conditions: recombinant HSD17B4 DSF thermal shift, protein 2 µM, buffer 10 mM HEPES, pH 7.5, NaCl 150 mM, stronger effect = higher value

Peroxisomal multifunctional enzyme type 2 (Homo sapiens), sequence (P51659 whole entry, looked up): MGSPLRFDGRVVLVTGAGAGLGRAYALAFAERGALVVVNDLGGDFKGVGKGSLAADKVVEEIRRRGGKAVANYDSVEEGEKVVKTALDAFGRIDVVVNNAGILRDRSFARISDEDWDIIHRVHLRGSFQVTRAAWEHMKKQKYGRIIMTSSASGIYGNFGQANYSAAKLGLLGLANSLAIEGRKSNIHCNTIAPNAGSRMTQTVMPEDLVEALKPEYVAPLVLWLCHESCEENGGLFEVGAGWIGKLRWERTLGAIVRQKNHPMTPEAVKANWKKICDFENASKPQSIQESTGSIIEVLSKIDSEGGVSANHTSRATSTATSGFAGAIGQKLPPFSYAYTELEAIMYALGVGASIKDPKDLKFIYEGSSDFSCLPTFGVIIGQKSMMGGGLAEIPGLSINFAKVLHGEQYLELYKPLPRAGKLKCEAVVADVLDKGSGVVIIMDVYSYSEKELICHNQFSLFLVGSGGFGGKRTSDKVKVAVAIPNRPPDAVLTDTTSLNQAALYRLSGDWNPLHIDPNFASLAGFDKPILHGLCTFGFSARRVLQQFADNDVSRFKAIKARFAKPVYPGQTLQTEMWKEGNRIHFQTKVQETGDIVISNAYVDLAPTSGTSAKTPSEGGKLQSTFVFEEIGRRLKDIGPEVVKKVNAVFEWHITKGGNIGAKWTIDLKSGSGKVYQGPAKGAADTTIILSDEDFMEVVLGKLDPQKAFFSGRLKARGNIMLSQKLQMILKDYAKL

Row | Compound | Tm shift (at 10 µM) [Celsius] | Tm shift (at 100 µM) [Celsius]
1 | Oc1cc(O)c2cc(O)c(-c3ccc(O)c(O)c3)[o+]c2c1 | 2.1 | –
2 | O=C1C2(Cl)C3(Cl)C4(Cl)C(Cl)(Cl)C5(Cl)C3(Cl)C1(Cl)C5(Cl)C24Cl (configuration not stated) | – | 3
